# Key:
# COLO 205 = experiment: NCI single dose (10 µM) SRB screen; type: cell-based, human; conditions: colon cancer, 48 h
# Escherichia coli = experiment: Agar well diffusion method; conditions: relative to ciprofloxacin
# HT29 = experiment: NCI single dose (10 µM) SRB screen; type: cell-based, human; conditions: colon cancer, 48 h
# MDA-MB-468 = experiment: NCI single dose (10 µM) SRB screen; type: cell-based, human; conditions: breast cancer, 48 h
# HOP-62 = experiment: NCI single dose (10 µM) SRB screen; type: cell-based, human; conditions: non-small cell lung cancer, 48 h
# HS578T = experiment: NCI single dose (10 µM) SRB screen; type: cell-based, human; conditions: breast cancer, 48 h
# UACC-62 = experiment: NCI single dose (10 µM) SRB screen; type: cell-based, human; conditions: melanoma, 48 h
# MALME-3M = experiment: NCI single dose (10 µM) SRB screen; type: cell-based, human; conditions: melanoma, 48 h
# RPMI-8226 = experiment: NCI single dose (10 µM) SRB screen; type: cell-based, human; conditions: leukaemia, 48 h
# HL-60(TB) = experiment: NCI single dose (10 µM) SRB screen; type: cell-based, human; conditions: leukaemia, 48 h
# M14 = experiment: NCI single dose (10 µM) SRB screen; type: cell-based, human; conditions: melanoma, 48 h
# SW-620 = experiment: NCI single dose (10 µM) SRB screen; type: cell-based, human; conditions: colon cancer, 48 h
# SR = experiment: NCI single dose (10 µM) SRB screen; type: cell-based, human; conditions: leukaemia, 48 h
# SK-MEL-2 = experiment: NCI single dose (10 µM) SRB screen; type: cell-based, human; conditions: melanoma, 48 h
# Aspergillus flavus = experiment: Agar well diffusion method; conditions: relative to clotrimazole
# K-562 = experiment: NCI single dose (10 µM) SRB screen; type: cell-based, human; conditions: leukaemia, 48 h
# HCT-15 = experiment: NCI single dose (10 µM) SRB screen; type: cell-based, human; conditions: colon cancer, 48 h
# MDA-MB-435 = experiment: NCI single dose (10 µM) SRB screen; type: cell-based, human; conditions: melanoma, 48 h
# SK-OV-3 = experiment: NCI single dose (10 µM) SRB screen; type: cell-based, human; conditions: ovarian cancer, 48 h
# MDA-MB-231 = experiment: NCI single dose (10 µM) SRB screen; type: cell-based, human; conditions: breast cancer, 48 h
# A498 = experiment: NCI single dose (10 µM) SRB screen; type: cell-based, human; conditions: renal cancer, 48 h
# NCI 60 cancer cell lines = experiment: NCI single dose (10 µM) SRB screen, mean over panel; type: cell-based, human; conditions: mean over 60 cell lines, 48 h
# HCC-2998 = experiment: NCI single dose (10 µM) SRB screen; type: cell-based, human; conditions: colon cancer, 48 h
# NCI-H522 = experiment: NCI single dose (10 µM) SRB screen; type: cell-based, human; conditions: non-small cell lung cancer, 48 h
# SF-268 = experiment: NCI single dose (10 µM) SRB screen; type: cell-based, human; conditions: CNS cancer, 48 h
# TK-10 = experiment: NCI single dose (10 µM) SRB screen; type: cell-based, human; conditions: renal cancer, 48 h
# MOLT-4 = experiment: NCI single dose (10 µM) SRB screen; type: cell-based, human; conditions: leukaemia, 48 h
# NCI-H23 = experiment: NCI single dose (10 µM) SRB screen; type: cell-based, human; conditions: non-small cell lung cancer, 48 h
# UO-31 = experiment: NCI single dose (10 µM) SRB screen; type: cell-based, human; conditions: renal cancer, 48 h
# UACC-257 = experiment: NCI single dose (10 µM) SRB screen; type: cell-based, human; conditions: melanoma, 48 h
# OVCAR-4 = experiment: NCI single dose (10 µM) SRB screen; type: cell-based, human; conditions: ovarian cancer, 48 h
# Candida albicans = experiment: Agar well diffusion method; conditions: relative to clotrimazole
# SNB-19 = experiment: NCI single dose (10 µM) SRB screen; type: cell-based, human; conditions: CNS cancer, 48 h
# OVCAR-5 = experiment: NCI single dose (10 µM) SRB screen; type: cell-based, human; conditions: ovarian cancer, 48 h
# SF-295 = experiment: NCI single dose (10 µM) SRB screen; type: cell-based, human; conditions: CNS cancer, 48 h
# RXF 393 = experiment: NCI single dose (10 µM) SRB screen; type: cell-based, human; conditions: renal cancer, 48 h
# Staphylococcus aureus = experiment: Agar well diffusion method; conditions: relative to ciprofloxacin
# SNB-75 = experiment: NCI single dose (10 µM) SRB screen; type: cell-based, human; conditions: CNS cancer, 48 h
# U251 = experiment: NCI single dose (10 µM) SRB screen; type: cell-based, human; conditions: CNS cancer, 48 h
# NCI-H226 = experiment: NCI single dose (10 µM) SRB screen; type: cell-based, human; conditions: non-small cell lung cancer, 48 h
# Bacillus subtilis = experiment: Agar well diffusion method; conditions: relative to ciprofloxacin
# PC-3 = experiment: NCI single dose (10 µM) SRB screen; type: cell-based, human; conditions: prostate cancer, 48 h
# BT-549 = experiment: NCI single dose (10 µM) SRB screen; type: cell-based, human; conditions: breast cancer, 48 h
# OVCAR-8 = experiment: NCI single dose (10 µM) SRB screen; type: cell-based, human; conditions: ovarian cancer, 48 h
# SF-539 = experiment: NCI single dose (10 µM) SRB screen; type: cell-based, human; conditions: CNS cancer, 48 h
# KM12 = experiment: NCI single dose (10 µM) SRB screen; type: cell-based, human; conditions: colon cancer, 48 h
# 786-0 = experiment: NCI single dose (10 µM) SRB screen; type: cell-based, human; conditions: renal cancer, 48 h
# LOX IMVI = experiment: NCI single dose (10 µM) SRB screen; type: cell-based, human; conditions: melanoma, 48 h
# HCT-116 = experiment: NCI single dose (10 µM) SRB screen; type: cell-based, human; conditions: colon cancer, 48 h
# NCI-H322M = experiment: NCI single dose (10 µM) SRB screen; type: cell-based; conditions: non-small cell lung cancer, 48 h
# IGROV1 = experiment: NCI single dose (10 µM) SRB screen; type: cell-based, human; conditions: ovarian cancer, 48 h
# T-47D = experiment: NCI single dose (10 µM) SRB screen; type: cell-based, human; conditions: breast cancer, 48 h
# NCI-H460 = experiment: NCI single dose (10 µM) SRB screen; type: cell-based, human; conditions: non-small cell lung cancer, 48 h
# Pseudomonas aeruginosa = experiment: Agar well diffusion method; conditions: relative to ciprofloxacin
# SK-MEL-28 = experiment: NCI single dose (10 µM) SRB screen; type: cell-based, human; conditions: melanoma, 48 h
# SN12C = experiment: NCI single dose (10 µM) SRB screen; type: cell-based, human; conditions: renal cancer, 48 h
# CCRF-CEM = experiment: NCI single dose (10 µM) SRB screen; type: cell-based, human; conditions: leukaemia, 48 h
# HOP-92 = experiment: NCI single dose (10 µM) SRB screen; type: cell-based, human; conditions: non-small cell lung cancer, 48 h
# OVCAR-3 = experiment: NCI single dose (10 µM) SRB screen; type: cell-based, human; conditions: ovarian cancer, 48 h
# DU-145 = experiment: NCI single dose (10 µM) SRB screen; type: cell-based, human; conditions: prostate cancer, 48 h
# CAKI-1 = experiment: NCI single dose (10 µM) SRB screen; type: cell-based, human; conditions: renal cancer, 48 h
# EKVX = experiment: NCI single dose (10 µM) SRB screen; type: cell-based, human; conditions: non-small cell lung cancer, 48 h
# MCF7 = experiment: NCI single dose (10 µM) SRB screen; type: cell-based, human; conditions: breast cancer, 48 h
# NCI/ADR-RES = experiment: NCI single dose (10 µM) SRB screen; type: cell-based, human; conditions: ovarian cancer, 48 h
# SK-MEL-5 = experiment: NCI single dose (10 µM) SRB screen; type: cell-based, human; conditions: melanoma, 48 h
# ACHN = experiment: NCI single dose (10 µM) SRB screen; type: cell-based, human; conditions: renal cancer, 48 h
# A549/ATCC = experiment: NCI single dose (10 µM) SRB screen; type: cell-based, human; conditions: non-small cell lung cancer, 48 h
smiles,measurement,setting,value
"CC1=C(C(=O)OC(C)(C)C)C(c2cccc(C#N)c2)C(C(=O)OC(C)(C)C)=C(C)N1 [Compound 1e, Di-tert-butyl 4-(3-cyanophenyl)-2,6-dimethyl-1,4-dihydropyridine-3,5-dicarboxylate]",GI% COLO 205,COLO 205,– (Only GI% ≥ 10 are shown)
same,"% activity index, E. coli",Escherichia coli,– (Values below 25 are of limited value and not shown as they refer either to inactive or non-diffusing compounds)
same,GI% HT29,HT29,13%
same,GI% MDA-MB-468,MDA-MB-468,27%
same,GI% HOP-62,HOP-62,– (Only GI% ≥ 10 are shown)
same,GI% HS578T,HS578T,– (Only GI% ≥ 10 are shown)
same,GI% UACC-62,UACC-62,26%
same,GI% MALME-3M,MALME-3M,– (Only GI% ≥ 10 are shown)
same,GI% RPMI-8226,RPMI-8226,39%
same,GI% HL-60(TB),HL-60(TB),41%
same,GI% M14,M14,– (Only GI% ≥ 10 are shown)
same,GI% SW-620,SW-620,– (Only GI% ≥ 10 are shown)
same,GI% SR,SR,42%
same,GI% SK-MEL-2,SK-MEL-2,– (Only GI% ≥ 10 are shown)
same,"% activity index, A. flavus",Aspergillus flavus,– (Values below 25 are of limited value and not shown as they refer either to inactive or non-diffusing compounds)
same,GI% K-562,K-562,34%
same,GI% HCT-15,HCT-15,19%
same,GI% MDA-MB-435,MDA-MB-435,– (Only GI% ≥ 10 are shown)
same,GI% SK-OV-3,SK-OV-3,– (Only GI% ≥ 10 are shown)
same,GI% MDA-MB-231,MDA-MB-231,14%
same,GI% A498,A498,– (Only GI% ≥ 10 are shown)
same,Mean GI%,NCI 60 cancer cell lines,14%
same,GI% HCC-2998,HCC-2998,– (Only GI% ≥ 10 are shown)
same,GI% NCI-H522,NCI-H522,17%
same,GI% SF-268,SF-268,11%
same,GI% TK-10,TK-10,– (Only GI% ≥ 10 are shown)
same,GI% MOLT-4,MOLT-4,39%
same,GI% NCI-H23,NCI-H23,13%
same,GI% UO-31,UO-31,25%
same,GI% UACC-257,UACC-257,16%
same,GI% OVCAR-4,OVCAR-4,– (Only GI% ≥ 10 are shown)
same,"% activity index, C. albicans",Candida albicans,– (Values below 25 are of limited value and not shown as they refer either to inactive or non-diffusing compounds)
same,GI% SNB-19,SNB-19,– (Only GI% ≥ 10 are shown)
same,GI% OVCAR-5,OVCAR-5,– (Only GI% ≥ 10 are shown)
same,GI% SF-295,SF-295,27%
same,melting point,,166 to 168 °C
same,GI% RXF 393,RXF 393,33%
same,"% activity index, S. aureus",Staphylococcus aureus,– (Values below 25 are of limited value and not shown as they refer either to inactive or non-diffusing compounds)
same,GI% SNB-75,SNB-75,38%
same,GI% U251,U251,– (Only GI% ≥ 10 are shown)
same,GI% NCI-H226,NCI-H226,22%
same,"% activity index, B. subtilis",Bacillus subtilis,– (Values below 25 are of limited value and not shown as they refer either to inactive or non-diffusing compounds)
same,GI% PC-3,PC-3,48%
same,GI% BT-549,BT-549,– (Only GI% ≥ 10 are shown)
same,GI% OVCAR-8,OVCAR-8,– (Only GI% ≥ 10 are shown)
same,GI% SF-539,SF-539,10%
same,GI% KM12,KM12,11%
same,GI% 786-0,786-0,18%
same,GI% LOX IMVI,LOX IMVI,10%
same,GI% HCT-116,HCT-116,35%
same,GI% NCI-H322M,NCI-H322M,– (Only GI% ≥ 10 are shown)
same,GI% IGROV1,IGROV1,– (Only GI% ≥ 10 are shown)
same,GI% T-47D,T-47D,53%
same,GI% NCI-H460,NCI-H460,– (Only GI% ≥ 10 are shown)
same,"% activity index, P. aeruginosa",Pseudomonas aeruginosa,– (Values below 25 are of limited value and not shown as they refer either to inactive or non-diffusing compounds)
same,GI% SK-MEL-28,SK-MEL-28,– (Only GI% ≥ 10 are shown)
same,GI% SN12C,SN12C,– (Only GI% ≥ 10 are shown)
same,GI% CCRF-CEM,CCRF-CEM,16%
same,GI% HOP-92,HOP-92,30%
same,GI% OVCAR-3,OVCAR-3,– (Only GI% ≥ 10 are shown)
same,GI% DU-145,DU-145,– (Only GI% ≥ 10 are shown)
same,GI% CAKI-1,CAKI-1,32%
same,GI% EKVX,EKVX,20%
same,GI% MCF7,MCF7,34%
same,GI% NCI/ADR-RES,NCI/ADR-RES,– (Only GI% ≥ 10 are shown)
same,GI% SK-MEL-5,SK-MEL-5,14%
same,GI% ACHN,ACHN,14%
same,GI% A549/ATCC,A549/ATCC,20%
